This assay deals with yeast tRNA^Phe (RNA, tRNA) GCGGAUUUAGCUCAGUUGGGAGAGCGCCAGACUGAAGAUCUGGAGGUCCUGUGUUCGAUCCACAGAAUUCGCACCA
Description: inhibition of lead(II)-induced cleavage, gel. The note with it: 10 mM Mg2+, 1 mM NH4+, 0.5 mM Pb2+; 50% inhibition of Pb2+ cleavage; 50 mM Tris-HCl pH 7.5; RNA 2.4 μM.

For orientation: Ki means the dissociation constant of the complex between target and ligand, obtained from inhibition or displacement. Low readings indicate tighter binding, high ones weaker binding.

As to `Cc1cc2nc3ccc(N(C)C)cc3[s+]c2cc1N`, the Ki was found to be 70 ± 20 µM.
